Laboratory results: patent publication US5352705A, “Inhibitors of farnesyl protein transferase” (Merck & Co., Inc., priority 1992, dated 1994)

Legend:
[1] = target: T1, Farnesyl-protein transferase (Ftase) from bovine brain (Bos taurus, UniProt P29702+P49355); assay: In vitro inhibition of ras farnesyl transferase; format: biochemical; settings: Ras-CVLS 3.5 μM, 0.25 μM [3H]FPP, partially purified bovine brain enzyme; read-out: IC50 (concentration of compound which gives 50% inhibition of FTase under the described assay conditions)
T1 construct: Farnesyl-protein transferase (Ftase) from bovine brain was chromatographed on DEAE-Sephacel; from tissue; host or cells: bovine brain, partially purified (DEAE-Sephacel, N-octyl agarose, mono Q HPLC)
Experimental: In vitro inhibition of ras farnesyl transferase
Farnesyl-protein transferase (Ftase) from bovine brain was chromatographed on DEAE-Sephacel (Pharmacia, 0-0.8 M NaC1 gradient elution), N-octyl agarose (Sigma, 0-0.6 M Nacl gradient elution), and a mono Q HPLC column (Pharmacia, 0-0.3 M NaC1 gradient). Ras-CVLS at 3.5 μM, 0.25 μM [3H]FPP, and the indicated compounds were incubated with this partially purified enzyme preparation. The Ftase data presented below is a measurement of the ability of the test compound to inhibit RAS farnesylation in vitro.
*(IC50 is the concentration of compound which gives 50% inhibition o
FTase under the described assay conditions)

[2] = system: Ras farnesylation; settings: cited from earlier work

## CC[C@H](C)[C@H](NC[C@@H](N)CS)C(=O)NCc1cccc(Cl)c1Cl [N-[2(R)-Amino-3-mercaptopropyl]-L-isoleucine-2,3-dichlorobenzylamide]
[1]
  IC50: 0.025 µM

## CC[C@H](C)[C@H](NC[C@@H](N)CS)C(=O)NCCc1cccc(Cl)c1 [N-[2(R)-Amino-3-mercaptopropyl]-L-isoleucine-3-chlorophenethylamide]
[1]
  IC50: 0.063 µM

## CC[C@H](C)[C@H](NC[C@@H](N)CS)C(=O)Nc1cccc(C)c1C [N-[2(R)-amino-3-mercaptopropyl]-L-isoleucine-2,3-dimethylphenylamide]
[1]
  IC50: 0.035 µM

## CC[C@H](C)[C@H](NC[C@@H](N)CS)C(=O)Nc1ccccc1 [N-[2(R)-amino-3-mercaptopropyl]-L-isoleucine-anilide]
[1]
  IC50: 0.063 µM

## CC[C@H](C)C(=O)O[C@H]1CCC=C2C=C[C@H](C)[C@H](CC[C@@H]3C[C@@H](O)CC(=O)O3)[C@H]21 [compactin]
[2]
  Inhibition of Ras farnesylation in vivo: Inhibition of Ras farnesylation in vivo has been demonstrated

## CC[C@H](C)C(=O)O[C@H]1C[C@@H](C)C=C2C=C[C@H](C)[C@H](CC[C@@H]3C[C@@H](O)CC(=O)O3)[C@H]21 [lovastatin]
[2]
  Inhibition of Ras farnesylation in vivo: Inhibition of Ras farnesylation in vivo has been demonstrated
